Laboratory results reported in article PMC6100056, “Antitumor Effects and Delivery Profiles of Menahydroquinone-4 Prodrugs with Ionic or Nonionic Promoiety to Hepatocellular Carcinoma Cells” (Molecules : A Journal of Synthetic Chemistry and Natural …, 2018).
Where a name gives a salt, the structure may show the parent alone.

Experiments:
PLC/PRF/5 cells = test: Cell viability assay (Cell Titer-Glo); format: cell-based; details: for IC50: Homo sapiens, 95% confidence interval in square brackets; for IC50 lower than that of MK-4: 96 h of treatment
Description: (§1) To assess the effects of MKH-ester prodrugs on HCC cell proliferation, DCP-positive (PLC/PRF/5) and DCP-negative (SK-Hep-1) HCC cell lines were treated with various concentrations of MKH-ACT, MKH-DMG, MKH-SUC or MK-4 up to 96 h, and cell viability was determined.
(§2) Cell viability was determined using a previously reported method. Briefly, PLC/PRF/5 and SK-Hep-1 cells were plated at 5.0 × 10^3 cells/well in 96-well plates and allowed to attach for 48 h. MK-4 and MKH-ACT were dissolved in 99.5% ethanol. MKH-SUC was dissolved in DMSO. MKH-DMG was dissolved in sterilized water. Stock solutions of each drug (50 mM) were diluted to the intended final concentrations with medium. Cells were exposed to MK-4, MKH-ACT, MKH-DMG or MKH-SUC for up to 96 h, and cell viability was evaluated using the Cell Titer-Glo Luminescent Cell Viability Assay (Promega, Madison, WI, USA) according to the manufacturer’s instructions. IC50 values were determined by a log [drug] vs. normalized response-variable slope analysis of GraphPad Prism, version 6.0 (GraphPad Software, San Diego, CA, USA).

SK-Hep-1 cells = test: Cell viability assay (Cell Titer-Glo); format: cell-based; details: for IC50 lower than that of MK-4: 96 h of treatment; for IC50: Homo sapiens, 95% confidence interval in square brackets
Description: as §1, §2

[1] = design: method as in PMID 17537874, PMID 10077437; details: cited from earlier work
[2] = Hydrolysis of MKH-SUC in isotonic buffer solution (PBS); format: physicochemical; details: in PBS at 37 °C; read-out: Half-life toward MKH (converted)
Description: Next, a time course of MKH delivery with the MKH derivatives, including MK-4, was investigated. The AUC0–24h values for MKO after treatment of MKH-SUC was the highest among the three MKH-derivatives in both HCC cell lines, and the AUC0–24h values for MKH after treatment of MKH-SUC were also the highest (Table 3). […] However, the difference in MKH delivery was not higher than that of the regeneration to MKH by the esterase of HCC (Figure 4 and Table 2). […] These differences may result from the actual amount (nearly equal to Vmax values) of uptake and the regeneration step between MKH-ACT and MKH-DMG, and the rates of transportation/enzymatic reactions to the substances (Km) of MKH-ACT and MKH-DMG may be sufficient to reach Vmax under the test conditions shown in Figure 5. […] Regarding the decrease of MK-4 after 24 h treatment of MKH-SUC in both cells (Figure 5D,H), this phenomenon may be explained by the disposition of hydrolysis of MKH-SUC in an isotonic buffer solution. […] This is because, at 24 h, the delivery of MKH, which acts as a cofactor of GGCX, remained sufficient, but excess MKH that would be oxidized to MK-4 may be reduced with the elimination of MKH-SUC.

IC50 lower than that of MK-4 (SK-Hep-1 cells) [fold]	IC50 (SK-Hep-1 cells; SK-HEP1, 72 h) [µM]	IC50 (SK-Hep-1 cells; SK-HEP1, 96 h) [µM]	melting point [°C]	IC50 (SK-Hep-1 cells; SK-HEP1, 48 h) [µM]	half-life [2] [h]	Compound	IC50 (PLC/PRF/5 cells; 72 h) [µM]	IC50 (PLC/PRF/5 cells; 96 h) [µM]	IC50 lower than that of MK-4 (PLC/PRF/5 cells) [fold]	IC50 (PLC/PRF/5 cells; 48 h) [µM]	Hydrolysis in human plasma [1]
1.23	71.6	71.9	39 to 41			CC(=O)Oc1c(C)c(C/C=C(\C)CC/C=C(\C)CC/C=C(\C)CCC=C(C)C)c(OC(C)=O)c2ccccc12 [MKH-ACT, Menahydroquinone-4 1,4-bis acetate]	152	114			
3.61	32.5	24.4		71.3		CC(C)=CCC/C(C)=C/CC/C(C)=C/CC/C(C)=C/Cc1c(C)c(OC(=O)CN(C)C)c2ccccc2c1OC(=O)CN(C)C [MKH-DMG, Menahydroquinone-4 1,4-bis-N,N-dimethylglycinate hydrochloride]	33.4	27.4	3.17	63	not accelerated
12.3	15.8	7.16		78.1	~25	CC(C)=CCC/C(C)=C/CC/C(C)=C/CC/C(C)=C/Cc1c(C)c(OC(=O)CCC(=O)O)c2ccccc2c1OC(=O)CCC(=O)O [MKH-SUC, Menahydroquinone-4 1,4-bis hemisuccinate]	26.6	20.1	4.32	48.9	
